The record followed here is patent publication EP1129354B1, “A METHOD FOR DETERMINING A MIMOTOPE SEQUENCE” (PEPSCAN SYSTEMS B.V., priority 1998, dated 2000).

The subject of one assay is Monoclonal antibody 26/9. As to the kind of experiment: PEPSCAN-based ELISA, binding of peptides to antibody 26/9 (Example-1). Particulars: value is the antibody 26/9 concentration at which the peptide shows binding activity in pepscan elisa. A general note: An ELISA detects its analyte on a solid surface through an enzyme-linked reagent.
Consider EMDEEEDIPNYA, for which the activity at entry is reported as “activity at ≥ 0.1 µg/ml”.

EMDEEEDIMDYA: the activity at result is recorded as “activity at ≥ 0.1 µg/ml”.

Regarding CGDAAMNIRCYA, the activity at result is reported as “activity at ≥ 10.0 µg/ml”.

Take CMCAAMNIRCYA: the activity at result is recorded as “activity at ≥ 10.0 µg/ml”.

EMDEEEDVMNYA: the activity at entry is “activity at ≥ 0.1 µg/ml”.

As to EGCAAMNIRCYA, the activity at entry is recorded as “activity at ≥ 10.0 µg/ml”.

For CGCEAMMIRCYA, the activity at result is “activity at ≥ 10.0 µg/ml”.

CGCAAMNIRNYA: the activity at result is given as “activity at ≥ 10.0 µg/ml”.

On to CGCAAENIRCYA, for which the activity at entry is reported as “activity at ≥ 10.0 µg/ml”.

For the substance CGCAANINIMCYA, the activity at entry is on record as “activity at ≥ 10.0 µg/ml”.

Regarding CGCAEMNIRCYA, the activity at result was “activity at ≥ 10.0 µg/ml”.

For the substance CGCAAMDIRCYA, the activity at entry is listed as “activity at ≥ 10.0 µg/ml”.

The next assay concerns antibody. Briefly: Pepscan ELISA, replacement analyses (Example-2). It is filed as binding. To be noted: value is the antibody concentration, antibody binds a non-linear epitope.
Turning to HNWPSAIGAFGL, the activity at entry was “activity at ≥ 5.0 µg/ml”.

Regarding KYFSSAMGAFKL, the activity at result is listed as “activity at ≥ 0.05 µg/ml”.

HYASSAIGAFKL: the activity at entry was “activity at ≥ 0.5 µg/ml”.

Take KWASSAIGAFKL: the activity at result is listed as “activity at ≥ 0.5 µg/ml”.

Take KYGSSAMGAFKL: the activity at result is recorded as “activity at ≥ 0.1 µg/ml”.

HWASSAMGAFKL: the activity at entry was “activity at ≥ 0.5 µg/ml”.

In the case of ANAPSAIGAFGL, the activity at result is given as “activity at ≥ 5.0 µg/ml”.

In the case of AWWPSAIGAFGL, the activity at entry was “activity at ≥ 5.0 µg/ml”.

In the case of ANWSSAIGAFKL, the activity at entry is “activity at ≥ 5.0 µg/ml”.

On to HWGSSAIGAFKL, for which the activity at entry is reported as “activity at ≥ 0.5 µg/ml”.

Take HWASSAIGAFKL: the activity at result is “activity at ≥ 1.0 µg/ml”.

As to ANWPSAIGAFGL, the activity at entry was “activity at ≥ 10.0 µg/ml”.

For KYFSSGMGAFKL, the activity at result is listed as “activity at ≥ 0.01 µg/ml”.

Take ANWSSAIGAFGL: the activity at result is on record as “activity at ≥ 5.0 µg/ml”.

As to KYGSSGMGAFKL, the activity at result is given as “activity at ≥ 0.05 µg/ml”.

The test system of another assay is antibody. Briefly: Pepscan ELISA, lengthening and replacement analyses (Example-3). The format is binding. To be noted: value is the antibody concentration. The text has this:
(§1) Lead peptides can also be derived from other type of libraries such as for example phage-display libraries.
(§2) In a replacement analysis the binding activity of complete series of substitutions analogs of lead peptides, in which each position is replaced by each of the other 19 natural L-amino acids, is investigated in detail. In addition, it is possible to use the 20 D-amino acids as well as other available non-natural amino acids. Substitutions that result in improved binding are combined into new sequences of building blocks. These new sequences are again tested in a 2nd replacement analysis. If necessary more rounds of replacement analyses are performed. After each round of a replacement analyses the antibody (or other soluble receptor) concentration can be lowered to obtain maximal binding activity (e.g. from 100 µg/ml to 0.01 µg/ml after 2 rounds of replacement-analyses, as shown in example-1).
(§3) Notes for the examples: • the 10 µg/ml, 1 µg/ml etc. denote the antibody concentration. • The line "improved position-01" etc. means that this change in amino acid (is underlined) improves binding activity in pepscan elisa at given antibody concentration. Positions that could not be improved are not mentioned (e.g. position-08 in first replacement-net of example-1, i.e. the original I at position 8 gives the highest activity).
In example-3, lead peptides were identified through phage-display. Adjacent cysteines/glycines were added to improve binding activity. After obtained activity multiple replacement analyses were done as discussed in example-1.
With CSDTRYGCG, the activity at entry is “activity at ≥ 5.0 µg/ml”.

As for CYETHYGCG, the activity at result was “activity at ≥ 0.5 µg/ml”.

As for CSDTRKGC, the activity at entry is given as “activity at ≥ 10.0 µg/ml”.

In the case of DYETKFGCG, the activity at entry is recorded as “activity at ≥ 0.05 µg/ml”.

In the case of CTETHFGCG, the activity at entry is “activity at ≥ 0.5 µg/ml”.

On to CTDTRKGCG, for which the activity at entry is recorded as “activity at ≥ 5.0 µg/ml”.

For CYETKFGNG, the activity at result is “activity at ≥ 0.05 µg/ml”.

On to CTETKYGCG, for which the activity at result was “activity at ≥ 0.5 µg/ml”.

Regarding CYETKFGCG, the activity at result is recorded as “activity at ≥ 0.1 µg/ml”.

Regarding CSDTHKGCG, the activity at result is recorded as “activity at ≥ 5.0 µg/ml”.

For the substance CSETRKGCG, the activity at result is given as “activity at ≥ 5.0 µg/ml”.

With CTETHYGCG, the activity at result is reported as “activity at ≥ 1.0 µg/ml”.

DYETKFGNG: the activity at result is reported as “activity at ≥ 0.01 µg/ml”.

The test system of another assay is antibody. As to the kind of experiment: Pepscan ELISA, replacement analyses and lengthening (Example-4). The format is binding. Particulars: value is the antibody concentration.
Source text: In addition to random minipepscan libraries mimotopes can also be identified from standard pepscan libraries. These libraries contain all overlapping 12-mers (or shorter/longer) covering the linear sequence of a known protein (Slootstra et al., 1995a).
as §2, §3
In example-4, a lead peptide was identified through standard pepscan analysis, i.e. the antibody was tested on all overlapping 12-mers covering the linear sequence of the protein. The following two rounds of replacement analyses were done as discussed in example-1. In addition, the mimotope was lengthened to the left and right (3 amino acids, this can be further lengthened) through additional replacement analyses.
Regarding AIMIKLILVNFR, the activity at result is reported as “activity at ≥ 5.0 µg/ml”.

Regarding “RPWYPPISLIRVNYRCEN [combination total, 18-mer mimotope]”, the activity at result is listed as “activity at ≥ 0.01 µg/ml”.

AVMIKLILVNYR: the activity at entry was “activity at ≥ 5.0 µg/ml”.

For the substance KPYYPPIKLIRV, the activity at result is recorded as “activity at ≥ 0.5 µg/ml”.

With AVMIKLILVNFR, the activity at result is on record as “activity at ≥ 5.0 µg/ml”.

YIPIKLIRVNYR: the activity at result is “activity at ≥ 0.5 µg/ml”.

Take KIWYPPIKLIRV: the activity at result was “activity at ≥ 0.5 µg/ml”.

Consider AVPIKLILVNFR, for which the activity at entry is listed as “activity at ≥ 5.0 µg/ml”.

As to IKLIRVNYRMQN, the activity at entry is “activity at ≥ 0.5 µg/ml”.

As to IKLIRVNYRCQP, the activity at result was “activity at ≥ 0.5 µg/ml”.

In the case of APPIKLIRVNYR, the activity at entry is “activity at ≥ 0.5 µg/ml”.

AVMIKLIRVNFR: the activity at entry is listed as “activity at ≥ 5.0 µg/ml”.

As to KIYYPPIKLIRV [lengthened left], the activity at entry is “activity at ≥ 1.0 µg/ml”.

For the substance RIYYPPIKLIRV, the activity at result is recorded as “activity at ≥ 0.5 µg/ml”.

Regarding “RPWYPPISLIRV [combination impr., replacement analysis-III]”, the activity at entry is on record as “activity at ≥ 0.1 µg/ml”.

For IKLIRVNYRMQP [lengthened right], the activity at entry is given as “activity at ≥ 1.0 µg/ml”.

Regarding IKLIRVNYRMEP, the activity at result was “activity at ≥ 0.5 µg/ml”.

Regarding RVMIKLILVNFR, the activity at result is “activity at ≥ 10.0 µg/ml”.

On to YPPIKLIRVNYR, for which the activity at entry was “activity at ≥ 0.1 µg/ml”.

Turning to KIYYPPISLIRV, the activity at result is listed as “activity at ≥ 0.5 µg/ml”.

Take “IKLIRVNYRCEN [combination impr., replacement analysis-IV]”: the activity at result is “activity at ≥ 0.1 µg/ml”.

A further assay concerns antibody. Briefly: Pepscan ELISA, replacement analyses of consensus sequence (Example-5). It is filed as binding. Particulars: value is the antibody concentration. Here is the method:
All 4550 dodecapeptides were ranked according to their binding activity. According to their ranking consensus sequences and motifs are identified. Initial methods of lead optimization that only use the sequence of the top 50 molecules have been described in Slootstra et al.(1995b; 1997). The present method uses all 4550 sequences. Firstly, the frequency and/or distribution of single amino acids and the dipeptide motifs OO, dipeptide motifs OXO and dipeptide motifs OXXO is determined using Microsoft Excel 4.0 (O, one of the 20 natural L-amino acids; X, any residue). Secondly, properties of the amino acids (hydrophobicity, charge etc.) are included in the analysis. […] This is done by substitution of building blocks that inhibit activity and include building blocks that improve binding activity.
as §2, §3
In example-5, a set of similar lead peptides were used to identify a consensus sequence. The consensus sequences were identified as discussed in materials and method. This sequence was used in the replacement analyses. ALIGNMENT OF LEAD PEPTIDES: • QNNMKLFRGCVP • RGIKWNEMTDQW • KLQQNPTFYPPV • TNNCKEFAGIVP • RGILTNIMKDQW • IVQNNPKFFRGA
Take ILTNNMPDWRG: the activity at entry is “activity at ≥ 0.1 µg/ml”.

For ILTNNMGDWYG, the activity at result is given as “activity at ≥ 0.01 µg/ml”.

On to ILQNNMKDWRG, for which the activity at result is on record as “activity at ≥ 0.5 µg/ml”.

On to ILQNNMPDFRG, for which the activity at entry is recorded as “activity at ≥ 0.5 µg/ml”.

On to ILTNNMGDWRG, for which the activity at entry was “activity at ≥ 0.05 µg/ml”.

Take ILQNNMKDFRG: the activity at result is given as “activity at ≥ 1.0 µg/ml”.

On to ILTNNMPDWYG, for which the activity at entry is “activity at ≥ 0.05 µg/ml”.

Consider ILTNNMKDFRG, for which the activity at result is on record as “activity at ≥ 0.5 µg/ml”.

For the next assay, the system named is antibody. As to the kind of experiment: Pepscan ELISA, replacement analyses of three leads and consensus (Example-6). To be noted: value is the antibody concentration. The format is binding.
Source text: as §1, §2, §3
In example-6, different lead peptides were used to identify a consensus sequence. Each lead peptide was used in multiple replacement analyses (two rounds).
Consider SSATRY, for which the activity at result is “: activity at ≥ 1.0 µg/ml”.

With YICHWA, the activity at result is “: activity at ≥0.5 µg/ml”.

On to KSITRW, for which the activity at result was “: activity at ≥ 5.0 µg/ml”.

As for YVCHWA, the activity at entry was “: activity at ≥ 0.1 µg/ml”.

Regarding AWWPSA, the activity at result is given as “: activity at ≥ 5.0 µg/ml”.

KLATRW: the activity at result is given as “: activity at ≥ 5.0 µg/ml”.

Turning to YVCHWASSATRY, the activity at result is recorded as “activity at 0.01 µg/ml”.

Regarding NICSWS, the activity at result is “: activity at ≥ 5.0 µg/ml”.

In the case of NVCSWA, the activity at result is “: activity at ≥ 5.0 µg/ml”.

Turning to ANWSSA, the activity at entry is on record as “: activity at ≥ 5.0 µg/ml”.

On to ANWPSA, for which the activity at entry is “: activity at ≥ 10.0 µg/ml”.

Regarding HNWPSA, the activity at entry is “: activity at ≥ 5.0 µg/ml”.

Consider ANAPSA, for which the activity at result is “: activity at ≥ 5.0 µg/ml”.

Regarding NVCSWS, the activity at entry was “: activity at ≥ 10.0 µg/ml”.

NVCHWS: the activity at entry is given as “: activity at ≥ 5.0 µg/ml”.

With KLITRW, the activity at result was “: activity at ≥ 10.0 µg/ml”.

KLITRY: the activity at result is listed as “: activity at ≥ 5.0 µg/ml”.

On to NICHWA, for which the activity at result is listed as “: activity at ≥ 1.0 µg/ml”.

With SLITRW, the activity at result is “: activity at ≥ 5.0 µg/ml”.

With HWASPA, the activity at entry is given as “: activity at ≥ 0.5 µg/ml”.

NVCHWA: the activity at result is “: activity at ≥0.5 µg/ml”.
